Test results taken from patent publication US8637535B2, “Polymorphic and other crystalline forms of cis-FTC” (Gilead Sciences, Inc., priority 2001, dated 2014).

What was measured:
[1] = solubility values greater than 100 mg/mL are considered highly soluble
Method: Equilibrium Solubility: Equilibrium solubility values were obtained using an excess of solid in a stoppered flask shaken in a temperature-controlled water bath at 25 C for 52 hours. Residual solid material was identified postequilibrium by hot-stage microscopy and PXRD. The supernatant was filtered across 0.45-μm membrane filters prior to dilution for HPLC analysis.

[2] = heated to 160° C., cooled to 25° C., reheated at 10° C./min
Method: Thermal events for Form I (−)-cis-FTC upon melting and subsequent cooling to room temperature were observed by DSC. A 5.5500 mg sample of Form I (−)-cis-FTC was heated to 160° C., that is just above the melting temperature for Form I, and then cooled back to 25° C.

[3] = hand trituration 5 minutes or Fitzpatrick mill; DSC and PXRD
Method: Milling: (−)-cis-FTC was milled in a Fitzpatrick mill at high speed (4000 RPM), hammers forward with a 000-band screen. The drug was passed through the filter once and collected in a plastic bag.
Two batches of milled Form I (−)-cis-FTC were prepared: one by hand trituration in a mortar and pestle for 5 minutes, another by milling in a Fitzpatrick mill.

[4] = below 130° C.
HIV [5] = details: cited from earlier work
HIV [6] = details: racemic mixture; cited from earlier work

Nc1nc(=O)n([C@@H]2CS[C@H](CO)O2)cc1F [Form I, β-L-2-hydroxymethyl-5-(5-fluorocytosin-1-yl)-1,3-oxathiolane]
solubility category [1]: highly soluble
change in potency by HPLC [2]: no change in potency
effect of milling on crystal form [3]: does not affect the crystal form
thermodynamic stability among phases [4]: most stable phase

Nc1nc(=O)n([C@@H]2CS[C@H](CO)O2)cc1F [(−)-(cis)-FTC, 4-amino-5-fluoro-1-(2-(hydroxymethyl)-1,3-oxathiolan-5-yl)-2(1H)-pyrimidinone (2R-cis)]
HIV activity (HIV [5]): potent

Nc1ccn(C2CSC(CO)O2)c(=O)n1 (racemic) [BCH-189, 2-hydroxymethyl-5-(cytosin-1-yl)-1,3-oxathiolane]
activity against HIV relative to AZT (HIV [6]): approximately the same activity against HIV as AZT
